Data set [1] concerns LDL-C. Briefly: Randomized, double-blind 12-week study: lipid-lowering efficacy in patients with prior statin MRSEs. The data set is classed as in vivo, human (patients). How it is done: (§1) A randomized, double-blind, double-dummy, parallel-group, multicenter study evaluating the efficacy and tolerability of fluvastatin XL 80 mg/day, and ezetimibe 10 mg/day, alone or in combination, is conducted according to the ethical principles of the Guidelines for Good Clinical Practice and the Declaration of Helsinki of the World Medical Association. Patients are recruited in 27 centers in Germany, Greece, Norway, Russia, Turkey and the United States. The protocol is approved by local ethics committees or institutional review boards. Written, informed consent before randomization are provided by all patients.
After a minimum 5-week lead-in, drug wash-out and diet stabilization period, patients who fulfilled the study criteria are randomized in a 1:1:1 ratio to 12-week treatment with fluvastatin XL 80 mg plus matched placebo for ezetimibe 10 mg, or ezetimibe 10 mg plus matched placebo for fluvastatin XL 80 mg, or fluvastatin XL 80 mg plus ezetimibe 10 mg. […] Compliance is assessed by study personnel using pill counts at each visit. […]
Initial screening includes medical history, physical examination, clinical chemistry, hematology and urinalysis. […] AI and Apo-B are measured at weeks 0, 4, 8 and 12. High sensitivity C-reactive protein (hs-CRP) is measured at weeks 0 and 12. […] LDL-C is calculated using the Friedewald formula when triglyceride levels <400 mg/dL. […]

The nature of data set [2]: Randomized, double-blind 12-week study: safety, tolerability and recurrence of muscle-related side effects (MRSE). Format: in vivo, human (patients). How it is done:
as §1
After a minimum 5-week lead-in, drug wash-out and diet stabilization period, patients who fulfilled the study criteria are randomized in a 1:1:1 ratio to 12-week treatment with fluvastatin XL 80 mg plus matched placebo for ezetimibe 10 mg, or ezetimibe 10 mg plus matched placebo for fluvastatin XL 80 mg, or fluvastatin XL 80 mg plus ezetimibe 10 mg. For blinding purposes tablets for fluvastatin XL/placebo and capsules for ezetimibe/placebo are used. Treatment assignment is unbiased and concealed from patients and investigator staff, by a randomization list produced by the sponsor using a validated system that automates the random assignment of treatment groups. Treatment remains fully blinded from the time of randomization until database lock. Trial medication is taken with water at bedtime. Compliance is assessed by study personnel using pill counts at each visit. Patients are to continue a low saturated fat and cholesterol-restricted diet and exercise regimen.
The study enrolls men and women 18 years of age or older with dyslipidemia who have previously experienced documented MRSEs that have led to cessation of statin treatment, or patients currently receiving statin treatment (other than fluvastatin) whose quality of life is affected by MRSEs and require switching to an alternative treatment. MRSEs include myalgia (defined as muscle ache, pain or discomfort), muscle cramps, lack of strength during effort, heaviness and/or weakness without creatine kinase elevation >3 times upper limit of normal.
Safety evaluations include regular monitoring of all adverse events, urine, hematology, blood chemistry, as well as physical examination and assessment of vital signs. MRSEs are assessed before and during the study using a standard questionnaire as detailed in Table 1.
Objectives of this study are to assess LDL-C reduction from baseline of (1) fluvastatin XL 80 mg in combination with ezetimibe 10 mg compared with ezetimibe 10 mg monotherapy and (2) fluvastatin XL 80 mg compared with ezetimibe 10 mg. Objectives of the study are also include (1) to assess the tolerability of fluvastatin XL 80 mg and ezetimibe 10 mg alone or in combination as determined by the rate of recurrence of MRSEs and the rate of recurrence of MRSEs leading to study drug discontinuation; (2) to assess the effect of fluvastatin XL 80 mg alone or in combination with ezetimibe 10 mg on total cholesterol, triglycerides, HDL-C, LDL-C:HDL-C ratio, Apo-AI and Apo-B compared with ezetimibe 10 mg monotherapy; (3) to determine the number of patients in each treatment group who reached target LDL-C levels according to the current National Cholesterol Education Program guidelines, (4) to assess the effect of fluvastatin XL 80 mg and ezetimibe 10 mg alone or in combination on hs-CRP; and (5) to assess the overall safety and tolerability profile of fluvastatin XL 80 mg and ezetimibe 10 mg alone or in combination.
With a sample size of 70 patients per treatment group, the study has 90% power to detect a difference of 9.65% between the population means, using a two-sided comparison with α equal to 0.05 and assuming a standard deviation of 17.5% in both groups. Efficacy and tolerability analyses are performed using the intent-to-treat population, defined as all patients receiving at least 1 dose of study drug. […]

For the compound `O=C1[C@H](CC[C@H](O)c2ccc(F)cc2)[C@@H](c2ccc(O)cc2)N1c1ccc(F)cc1` [Ezetimibe], the “LDL-C lowering from baseline” value in data set [1] (baseline to week 12 or study end (LOCF), fluvastatin XL 80 mg/day, ezetimibe 10 mg/day) is reported as 15.6%. Further, in data set [1] (subgroup of 91 patients in the high-risk category), the “patients achieving a LDL-C level of <100 mg/dL at study end” value came out at 4%. Also, in data set [2] (12-week treatment), the “MRSE recurrence leading to discontinuation, incidence rate” value was found to be 8%; the “MRSE recurrence leading to discontinuation, number of patients” value stood at 5 patients; the “any MRSE recurrence, incidence rate” value turned out to be 24%; the “any MRSE recurrence, number of patients” value stood at 16 patients. In addition, the “patients prematurely discontinued from the study due to adverse events” value in data set [2] (12-week treatment) was found to be 8 patients. In data set [2] (12-week treatment, safety population), the “patients reporting an adverse event” value is 39 patients. Besides, in data set [2] (in vivo), the “median time to first event, MRSE recurrence leading to discontinuation” value stood at 2.57 weeks and the “median time to first event, any MRSE recurrence” value was 3.07 weeks.

For the origin of these results see patent US20090275551A1, “Fluvastatin for the treatment of patients with a history of muscle related side effects with other statins” (priority 2007, published 2009).
